Measured values reported in patent US11421145B2, “Oil recovery methods using a formulation containing an unsaturated zwitterionic surfactant and a polymer” (King Fahd University of Petroleum and Minerals, priority 2019, dated 2022).

What was measured:
Assay type in all cases: physicochemical
[1] = Surface tension by pendant-drop technique (CMC and surface properties)
Method: The surface tension of the unsaturated surfactant in SW and FW at different temperatures was analyzed using a Biolin Scientific Attension instrument. The pendant-drop technique was used to measure the surface tension at 30° C. and 60° C. Other surface properties such as CMC, surface tension at CMC (γcmc), surfactant ability at lower surface tension (πcmc), maximum surface access (Γmax), and minimum area per molecule (Amin) were also obtained from the surface tension data. These surface properties were calculated using Eqs. 1-3,
(§1) where γ0 is the surface tension of the brine (FW or SW), NA is the Avogadro number, dγ/dlnC is the slope below CMC in the surface tension plot, C is the surfactant concentration in brine, T is temperature, R is the gas constant, and n=1 for zwitterionic surfactants [Wang, Y., Zhang, Y., Liu, X., Wang, J., Wei, L., & Feng, Y. (2014) Effect of a hydrophilic head group on Krafft temperature, surface activities and rheological behaviors of Erucyl Amidobetaines. Journal of Surfactants and Detergents, 17:295-301—incorporated herein by reference]. The interfacial tension between crude oil and water was measured using a spinning drop tensiometer from Kruss (SITE 100). All the reported points are the average equilibrium values.
Variations in the surface tension of the unsaturated surfactant with concentration at different temperatures and salinities are summarized in FIG. 7. […] The CMC and surface tension corresponding to the CMC (γcmc) were estimated from the breakpoint in surface tension versus concentration plots. […] A similar reduction in CMC with increasing NaCl concentration was reported for the alkyl amidosulfobetaine surfactant [Feng, Y., & Chu, Z. (2016) Correlating surface activity with structural and environmental parameters for alkylamidosulfobetaine surfactants. Colloid and Polymer Science, 294:957-963, incorporated herein by reference in its entirety]. However, in this disclosure, the reduction in the CMC was observed when SW was replaced with FW. The reduction in the CMC could be associated with the salting-out effect of the unsaturated surfactant hydrophobic tail, which got enhanced by increasing the salinity [Feng, Y., & Chu, Z. (2016) Correlating surface activity with structural and environmental parameters for alkylamidosulfobetaine surfactants. Colloid and Polymer Science, 294:957-963, incorporated herein by reference in its entirety].

[2] = Interfacial tension between crude oil and water, spinning drop tensiometer; conditions: for IFT after aging: after aging at 90° C. for 2 weeks
From the text: API gravity and molecular weight of the oil were 30 and 251 g mol^−1, respectively.
as §1
Interfacial tension is one of the main parameters to assess the performance of surfactants for EOR application. Interfacial tension depends on several parameters such as the nature of the crude oil, salinity, temperature, pH, surfactant type and its molecular structure, surfactant concentration, and residence time of the surfactant inside the reservoir. […] The spinning drop tensiometer can measure ultra-low IFT down to 10^−4 mN m^−1 at various temperatures. This equipment could go up to 90° C., but it was difficult to get a stable drop due to bubble formation, therefore the IFT calculated at 90° C. might not be an accurate representation. Therefore, measuring IFT at high temperature was avoided and another strategy was adopted. Specifically, several solutions at field conditions (90° C.) were aged for 2 weeks and then their IFT was compared with that of the original solution. The water/oil IFT was initially >9 mN m^1 in both FW and SW. […] The low CMC is advantageous because the same IFT reduction can be achieved at a very low surfactant concentration. In addition, IFT will not change considerably because of surfactant adsorption. In general, no considerable change in IFT was detected within the investigated temperatures and salinities. […] Canadian Journal of Chemical Engineering, 94:454-460; and Li, P., Yang, C., Cui, Z., Song, B., Jiang, J., & Wang, Z. (2016) A new type of sulfobetaine surfactant with double alkyl polyoxyethylene ether chains for enhanced oil recovery. Journal of Surfactants and Detergents, 19:967-977, each incorporated herein by reference in their entirety]. […] Journal of Surfactants and Detergents, 20:777-788; and Hussain, S. S., Kamal, M. S., & Sultan, A. S. (2017) Amido-amine-based cationic Gemini surfactants: Thermal and interfacial properties and interactions with cationic polyacrylamide. Journal of Surfactants and Detergents, 20:47-55, each incorporated herein by reference in their entirety].

[3] = Compatibility of surfactant with AM-AMPS copolymer; conditions: commercially available AM-AMPS copolymer
Method: The interactions of the synthesized unsaturated surfactant with a commercially available copolymer of acrylamide and 2-acrylamido-2-methylpropane sulfonic acid (AM-AMPS) were evaluated using compatibility and rheological tests.

[4] = 0.02 wt. % surfactant, FW, 60° C.
[5] = 0.02 wt. % surfactant, SW, 30° C.
[6] = 0.05 wt. % surfactant, FW, 60° C.
[7] = 0.05 wt. % surfactant, SW, 30° C.

For `CCCCCCCC/C=C\CCCCCCCC(=O)NCCC[N+](C)(C)CCCS(=O)(=O)[O-]` [unsaturated surfactant, 3-(N-oleamidopropyl-N,N-dimethylammonium) propane sulfonate], the Amin ([1]; FW, 60 °C) was 0.28 nm^2, the CMC ([1]; FW, 60 °C) was 1.53 × × 10^−4 mol L^−1 and the “Γmax × 10^6” value ([1]; FW, 60 °C) was 5.88 mol m^−2. The γcmc ([1]; FW, 60 °C) was 33.55 mN m^−1, the πcmc ([1]; FW, 60 °C) was 38.04 mN m^−1 and the Amin ([1]; SW, 30 °C) was 0.22 nm^2. The CMC ([1]; SW, 30 °C) was 1.02 × × 10^−4 mol L^−1, the “Γmax × 10^6” value ([1]; SW, 30 °C) was 7.27 mol m^−2 and the γcmc ([1]; SW, 30 °C) was 30.23 mN m^−1. It also gave a πcmc ([1]; SW, 30 °C) of 41.76 mN m^−1, an Amin ([1]; SW, 60 °C) of 0.29 nm^2 and a CMC ([1]; SW, 60 °C) of 2.05 × × 10^−4 mol L^−1. For the same molecule, the “Γmax × 10^6” value ([1]; SW, 60 °C) was 5.60 mol m^−2, the γcmc ([1]; SW, 60 °C) was 31.03 mN m^−1 and the πcmc ([1]; SW, 60 °C) was 40.96 mN m^−1. The “CMC expressed as surfactant concentration” value ([1]; corresponding to 1.02×10^−4 mol L^−1) was 0.005%, the CMC ([1]; in FW (summary b150)) was 0.000205 mol/L and the CMC ([1]; in SW (summary b150)) was 0.000102 mol/L. The CMC ([1]; in SW and FW (as worded)) was 0.000102 mol/L, the IFT ([2]; 0.01 wt. % surfactant, FW, 60° C.) was 0.33 mN m^−1 and the IFT ([2]; 0.01 wt. % surfactant, SW, 30° C.) was 0.31 mN m^−1. The IFT ([2]; 0.01 wt. % surfactant, SW, 60° C.) was 0.36 mN m^−1, the IFT [2, 4] was 0.25 mN m^−1 and the IFT after aging [2, 4] was 0.27 mN m^−1. It also gave an IFT [2, 5] of 0.21 mN m^−1, an IFT after aging [2, 5] of 0.29 mN m^−1 and an IFT ([2]; 0.02 wt. % surfactant, SW, 60° C.) of 0.27 mN m^−1. The IFT [2, 6] was 0.23 mN m^−1, the IFT after aging [2, 6] was 0.26 mN m^−1 and the IFT [2, 7] was 0.25 mN m^−1. It also gave an IFT after aging [2, 7] of 0.29 mN m^−1, an IFT ([2]; 0.05 wt. % surfactant, SW, 60° C.) of 0.31 mN m^−1 and an IFT ([2]; 0.075 wt. % surfactant, FW, 60° C.) of 0.24 mN m^−1. It also gave an IFT ([2]; 0.075 wt. % surfactant, SW, 30° C.) of 0.21 mN m^−1, an IFT ([2]; 0.075 wt. % surfactant, SW, 60° C.) of 0.30 mN m^−1 and an IFT ([2]; 0.1 wt. % surfactant, FW, 60° C.) of 0.28 mN m^−1. It also gave an IFT ([2]; 0.1 wt. % surfactant, SW, 30° C.) of 0.22 mN m^−1, an IFT ([2]; 0.1 wt. % surfactant, SW, 60° C.) of 0.31 mN m^−1 and an IFT ([2]; 0.2 wt. % surfactant, FW, 60° C.) of 0.27 mN m^−1. For the same molecule, the IFT ([2]; 0.2 wt. % surfactant, SW, 30° C.) was 0.23 mN m^−1, the IFT ([2]; 0.2 wt. % surfactant, SW, 60° C.) was 0.32 mN m^−1 and the “decrease in water/oil IFT on addition of surfactant” value ([2]; FW and SW, initial IFT >9) was “almost two orders of magnitude”. For the same molecule, the “oil/water IFT, order of magnitude” value ([2]; not affected much by temperature and salinity) was ~10^−1 mN m^−1, the “change of water/oil IFT after aging” value ([2]; solutions aged at 90° C. for 2 weeks) was “did not change” and the “compatibility with acrylamide copolymer” value [3] was “excellent compatibility”.
